Data as given in patent US20220387604A1, “SELECTIVE DUAL HISTONE DEACETYLASE 6/8 (HDAC6/8) DEGRADERS AND METHODS OF USE THEREOF” (DANA-FARBER CANCER INSTITUTE, INC., priority 2019, published 2022).

Legend:
[1] = system: other identified HDAC proteins; assay: Quantitative proteomics of cellular protein abundance in Kelly cells: other identified HDAC proteins; format: cell-based, human; settings: 1 μM, 5 hours, compared to DMSO control
Method: Lysis buffer (8 M Urea, 50 mM NaCl, 50 mM 4-(2hydroxyethyl)-1-piperazineethanesulfonic acid (EPPS) pH 8.5, protease and phosphatase inhibitors from Roche®) were added to the cell pellets and homogenized by 20 passes through a 21 gauge (1.25 in. long) needle to achieve a cell lysate with a protein concentration between 1-4 mg mL^−1. A micro-BCA assay (Pierce™) was used to determine the final protein concentration in the cell lysate. 200 μg of protein for each sample were reduced and alkylated as described in Donovan et al., Elife 7:e38430 (2018).
Proteins were precipitated using methanol/chloroform. Four volumes of methanol were added to the cell lysate, followed by one volume of chloroform, and finally three volumes of water. The mixture was vortexed and centrifuged to separate the chloroform phase from the aqueous phase. The precipitated protein was washed with three volumes of methanol, centrifuged and the resulting washed precipitated protein was allowed to air dry. The precipitated protein was resuspended in 4 M Urea, 50 mM HEPES pH 7.4, followed by dilution to 1 M urea with the addition of 200 mM EPPS, pH 8. Proteins were first digested with LysC (1:50; enzyme:protein) for 12 hours at room temperature. The LysC digestion was diluted to 0.5 M Urea with 200 mM EPPS pH 8 followed by digestion with trypsin (1:50; enzyme:protein) for 6 hours at 37° C. Tandem mass tag (TMT) reagents (Thermo Fisher Scientific) were dissolved in anhydrous acetonitrile (ACN) according to manufacturer's instructions.
Anhydrous ACN was added to each peptide sample to a final concentration of 30% v/v, and labeling was induced with the addition of TMT reagent to each sample at a ratio of 1:4 peptide:TMT label. […] The sample channels were combined at a 1:1:1:1:1:1:1:1:1:1:1 ratio, desalted using C18 solid phase extraction cartridges (Waters®) and analyzed by LC-MS for channel ratio comparison. Samples were then combined using the adjusted volumes determined in the channel ratio analysis and dried down in a speed vacuum. […]

[2] = target: T1, full length human HDAC8-EGFP (Homo sapiens, UniProt Q9BY41); assay: HDAC8 reporter assay (HDAC8-EGFP with mCherry reporter); format: cell-based; settings: 5 hour treatment, FIG. 6; hook effect at higher concentrations
T1 construct: Cells stably expressing the full length human HDAC8-EGFP with mCherry reporter; expressed in transfected cells; Cilantro2 vector (Addgene, 74450)
T1 sequence (Q9BY41 1-377): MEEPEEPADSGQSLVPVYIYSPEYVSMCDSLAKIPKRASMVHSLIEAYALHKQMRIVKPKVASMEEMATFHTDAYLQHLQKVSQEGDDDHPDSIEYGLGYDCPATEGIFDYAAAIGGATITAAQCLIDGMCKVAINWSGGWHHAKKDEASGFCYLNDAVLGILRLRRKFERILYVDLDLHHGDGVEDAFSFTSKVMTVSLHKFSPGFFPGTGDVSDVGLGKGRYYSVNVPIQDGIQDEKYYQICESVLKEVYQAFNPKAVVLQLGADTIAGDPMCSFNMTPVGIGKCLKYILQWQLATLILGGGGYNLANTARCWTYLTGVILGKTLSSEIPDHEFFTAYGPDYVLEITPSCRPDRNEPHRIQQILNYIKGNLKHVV
Method: Cells stably expressing the full length human HDAC8-EGFP with mCherry reporter in Cilantro2 vector (Addgene, 74450) were seeded at 30-50% confluency in 384-well plates with 50 μL FluoroBrite™ DMEM media (Thermo Fisher Scientific, A18967) containing 10% FBS per well a day before compound treatment. Compounds were dispensed using a D300e Digital Dispenser (HP), normalized to 0.5% DMSO, and incubated with cells for 5 hours. The assay plate was imaged immediately using an Acumen® High Content Imager (TTP Labtech) with 488 nm and 561 nm lasers in […] per well format. The resulting images were analyzed using CellProfiler™.
A series of image analysis steps (‘image analysis pipeline’) was constructed. First, the red and green channels were aligned and cropped to target the middle of each well (to avoid analysis of heavily clumped cells at the edges), and a background illumination function was calculated for both red and green channels of each well individually and subtracted to correct for illumination variations across the 384-well plate from various sources of error. An additional step was then applied to the green channel to suppress the analysis of large auto fluorescent artifacts and enhance the analysis of cell specific fluorescence by way of selecting for objects under a given size, 30 A.U., and with a given shape, speckles. mCherry-positive cells were then identified in the red channel filtering for objects between 8-60 pixels in diameter and using intensity to distinguish between clumped objects. The green channel was then segmented into GFP positive and negative areas and objects were labeled as GFP positive if at least 40% of it overlapped with a GFP positive area. The fraction of GFP-positive cells/mCherry-positive cells in each well was then calculated, and the green and red images were rescaled for visualization. The values for the concentrations that lead to a 50% degradation (DC50) were calculated using the nonlinear fit variable slope model in GraphPad Prism software.

degradation of GFP tagged HDAC8 in the reporter cell lines [2]	Compound	change of cellular protein levels of the other identified HDAC proteins (heat map FIG. 3) [1]
degradation of GFP tagged HDAC8	O=C(/C=C/c1ccc(CN(CCOCCNc2cccc3c2C(=O)N(C2CCC(=O)NC2=O)C3=O)CCc2c[nH]c3ccccc23)cc1)NO (stereo not drawn) [Compound 2, (E)-3-(4-(((2-(1H-indol-3-yl)ethyl)(2-(2-((2-(2,6-dioxopiperidin-3-yl)-1,3-dioxoisoindolin-4-yl)amino)ethoxy)ethyl)amino)methyl)phenyl)-N-hydroxyacrylamide]	did not affect
degradation of GFP tagged HDAC8	O=C(/C=C/c1ccc(CN(CCCCCNc2cccc3c2C(=O)N(C2CCC(=O)NC2=O)C3=O)CCc2c[nH]c3ccccc23)cc1)NO (stereo not drawn) [Compound 3, (E)-3-(4-(((2-(1H-indol-3-yl)ethyl)(5-((2-(2,6-dioxopiperidin-3-yl)-1,3-dioxoisoindolin-4-yl)amino)pentyl)amino)methyl)phenyl)-N-hydroxyacrylamide]	did not affect

Compound	degradation of GFP tagged HDAC8 in the reporter cell lines [2]	change of cellular protein levels of the other identified HDAC proteins (heat map FIG. 3) [1]
O=C(/C=C/c1ccc(CN(CCOCCOCCNc2cccc3c2C(=O)N(C2CCC(=O)NC2=O)C3=O)CCc2c[nH]c3ccccc23)cc1)NO (stereo not drawn) [Compound 1, (E)-3-(4-(((2-(1H-indol-3-yl)ethyl)(2-(2-(2-((2-(2,6-dioxopiperidin-3-yl)-1,3-dioxoisoindolin-4-yl)amino)ethoxy)ethoxy)ethyl)amino)methyl)phenyl)-N-hydroxyacrylamide]	degradation of GFP tagged HDAC8	did not affect
